Assay results taken from patent US10842874B2, “Sensitization of bacterial cells to quinolone antibiotics” (Massachusetts Institute of Technology, priority 2017, dated 2020).
In brackets after ≈: the same amount, converted by molar mass.

What was measured:
[1] = test system: E. coli K12 strain MG1655 stationary phase cells; test: Potentiation assays on stationary phase cultures (metabolites / oxygen plus antibiotic, CFU/mL); assay type: cell-based, Escherichia coli; settings: for killing of stationary phase E. coli with glucose-fumarate supplementation: different antibiotic concentrations
[2] = test system: M. smegmatis; test: Minimum inhibitory concentration (MIC); assay type: cell-based, Mycobacterium smegmatis; settings: Mycolicibacterium smegmatis
[3] = test system: E. coli K12 strain MG1655; assay type: cell-based, Escherichia coli
Protocol: At each time point, cells were also serially diluted in PBS and plated on LB agar plates to determine the CFU/mL at the time of treatment. Time points were taken until cells reached maximum carrying capacity. After 24 hours of treatment, 100 μl of cells from each tube was spun down and re-suspended in PBS on a 96-well plate. Cells were then serially diluted and plated on LB agar plates. The CFU/mL at treatment was normalized by the CFU/mL of stationary phase cells (% max CFU/ml).
An overnight culture of E. coli was diluted 1/10, 1/100, 1/1000, and 1/10000 in non-baffled flasks. […] Cells were spun down and re-suspended in PBS, diluted and plated on LB agar plates to determine CFU/ml.

[4] = test system: S. aureus; settings: exponentially growing cultures (1% maximal density)
[5] = test system: M. smegmatis; settings: exponentially growing cultures (1% maximal density)
[6] = test system: M. smegmatis strain mc^2 155; test: Potentiation assay, glucose-fumarate sensitization of stationary phase culture; assay type: cell-based, Mycobacterium smegmatis; settings: aerated stationary phase; 0.4% fumarate and/or 0.4% glucose
[7] = MOPS rich media, shaking, 1 μg/mL ciprofloxacin

In the case of `C[S+](C)[O-]` [DMSO], the “sensitization of stationary phase cultures to ciprofloxacin by the supplement alone” value (“sensitization … by the supplement alone” for short) [1, 7] is reported as “none of these electron acceptors alone was able to sensitize cells”.
For `CC1(C)S[C@@H]2[C@H](NC(=O)[C@H](N)c3ccccc3)C(=O)N2[C@H]1C(=O)O` [ampicillin], the “killing of stationary phase E. coli with glucose-fumarate supplementation” value [1] was “did not kill stationary phase cells”.
In the case of `O=C(O)c1cn(C2CC2)c2cc(N3CCNCC3)c(F)cc2c1=O` [ciprofloxacin], the MIC [2] is reported as 0.5 µg/mL (≈ 1.51 µM), the “killing at 1 μg/mL (100xMIC)” value ([3]; 1 μg/mL ciprofloxacin, low and intermediate cell density) is reported as “maximal killing at low cell density” and the “ability to kill the high-density cell population (DDP)” value ([3]; dose 1000x the MIC, treatment time 24 hours) is reported as “inability of ciprofloxacin to kill a fraction of the cell population”. For the same compound, the “reduction in persister cells of ΔrelAspoT mutant compared to wildtype” value ([3]; stationary phase, 1 μg/mL ciprofloxacin, ppGpp0 strain) was 5.5 fold, the “susceptibility of quinolone hypersensitive mutant recB” value ([3]; ΔrecB mutant, stationary phase) was “hypersensitive in stationary phase” and the “number of viable cells at higher doses” value [4] was “below the limit of detection”. For the same compound, the “number of viable cells at higher doses” value [5] was “below the limit of detection”.
For `O=C(O)/C=C/C(=O)O` [fumarate], the “sensitization of stationary phase cultures to ciprofloxacin” value [6] was “weakly”, the “sensitization … by the supplement alone” value [1, 7] was “none of these electron acceptors alone was able to sensitize cells” and the “sensitization of high-density cultures to ciprofloxacin by electron acceptor in combination with glucose” value ([1]; MOPS rich media, shaking, 1 μg/mL ciprofloxacin, with glucose) was “synergistically sensitized”.
With `O=[N+]([O-])[O-].[K+]` [nitrate, potassium nitrate] the “sensitization … by the supplement alone” value [1, 7] was “none of these electron acceptors alone was able to sensitize cells”.
For `O=O` [oxygen], the “susceptibility of stationary phase E. coli to ciprofloxacin with supplementation” value ([1]; static stationary phase culture, 0.4% glucose, bubbled air, oxygen tension 5-6%, 1 μg/mL ciprofloxacin) was “minimal effect”.
gentamicin was tested, and the “killing of stationary phase E. coli with glucose-fumarate supplementation” value [1] was “sensitized”.
